Laboratory results: paper PMC10591915 (ACS chemical biology, 2023)
Like-named read-outs stand apart in the source and are kept apart here.

Columns and labels:
human CRBP1 [1] = target: T1, human CRBP1 (Homo sapiens, UniProt P09455); assay: fluorescence atROL-replacement assay (Ki determination); type: binding
T1 sequence (P09455 1-135): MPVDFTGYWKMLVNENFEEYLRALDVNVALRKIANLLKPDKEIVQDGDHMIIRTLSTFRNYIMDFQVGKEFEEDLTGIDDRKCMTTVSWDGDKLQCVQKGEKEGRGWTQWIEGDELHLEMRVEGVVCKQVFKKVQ

[2] = values as provided by PubChem; ref PubChem; cited from earlier work
albino mice = details: cited from earlier work
human CRBP1 [3] = target: T1, human CRBP1; details: abn-CBD reference value; cited from earlier work

Compound | Ki (human CRBP1 [1]) [µM] | log P [2] | protection against light-induced retinal damage (albino mice) | Ki (human CRBP1 [3]) [µM]
CC(c1cccs1)N(C)Cc1nc(C(c2ccccc2)c2ccccc2)no1 (stereo not shown) [inhibitor 5, N-[(3-benzhydryl-1,2,4-oxadiazol-5-yl)methyl]-N-methyl-1-thiophen-2-ylethanamine] | 10.6 ± 2.5 | 5.0 |  | 
Cc1ccc(C2(c3noc(CN(C)Cc4cccs4)n3)CCCC2)cc1 [inhibitor 1, N-methyl-N-[[3-[1-(4-methylphenyl)cyclopentyl]-1,2,4-oxadiazol-5-yl]methyl]-1-thiophen-2-ylmethanamine] | 9 ± 4.1 | 4.9 |  | 
COc1ccc(S(=O)(=O)N2CCC(O)(CO)CC2)c2c1CCCC2 [inhibitor 4, 4-(hydroxymethyl)-1-[(4-methoxy-5,6,7,8-tetrahydronaphthalen-1-yl)sulfonyl]piperidin-4-ol] |  | 1.4 |  | 
COCC1CCN(Cc2nc(C(c3ccccc3)c3ccccc3)no2)CC1 [inhibitor 3, 3-benzhydryl-5-[[4-(methoxymethyl)piperidin-1-yl]methyl]-1,2,4-oxadiazole] |  | 4.0 |  | 
C=C(C)[C@@H]1CCC(C)=C[C@H]1c1c(O)cc(O)cc1CCCCC [abn-CBD, 4-[(1R,6R)-3-Methyl-6-prop-1-en-2-ylcyclohex-2-en-1-yl]-5-pentylbenzene-1,3-diol] |  | 6.5 | protecting against this condition in albino mice | 0.067
CCN(CCn1cccn1)Cc1nc(C2(c3ccc(C)cc3)CCCC2)no1 [inhibitor 2, N-ethyl-N-[[3-[1-(4-methylphenyl)cyclopentyl]-1,2,4-oxadiazol-5-yl]methyl]-2-pyrazol-1-ylethanamine] | 7.1 ± 2.7 | 4.0 |  | 
Cc1ccc(C2(c3noc(CN(C)Cc4cnn(C)c4)n3)CCCC2)cc1 [inhibitor 6, N-methyl-N-[[3-[1-(4-methylphenyl)cyclopentyl]-1,2,4-oxadiazol-5-yl]methyl]-1-(1-methylpyrazol-4-yl)methanamine] | 10.7 ± 4.5 | 3.5 |  | 
